# Source: the NIST ThermoML archive (doi:10.1021/je101192x)
# ± gives the expanded uncertainty stated by the source.
# Experiment: wn = mass fraction of the nth substance listed
# Conditions: for viscosity / mass density: 101 kPa, Liquid; for viscosity: Capillary tube (Ostwald / Ubbelohde) method; for mass density: Pycnometric method; for surface tension liquid-gas: Pendant drop shape
structure (smiles),measurement,setting,value
CN(CCO)CCO [N-methyldiethanolamine] + O,viscosity,"288.15 K, w1 = 0.1",1.711 ± 0.021 mPa·s
same,viscosity,"288.15 K, w1 = 0.2",2.631 ± 0.032 mPa·s
same,mass density,"288.15 K, w1 = 0.1",1007.1 ± 1 kg/m3
same,mass density,"288.15 K, w1 = 0.2",1017.5 ± 1.1 kg/m3
same,surface tension liquid-gas,"313.15 K, w1 = 0.1",58.71 ± 2.1 mN/m
same,surface tension liquid-gas,"313.15 K, w1 = 0.2",54.68 ± 1.9 mN/m
same,viscosity,"313.15 K, w1 = 0.1",0.905 ± 0.012 mPa·s
same,viscosity,"313.15 K, w1 = 0.2",1.312 ± 0.018 mPa·s
same,mass density,"313.15 K, w1 = 0.1",1001.1 ± 1 kg/m3
same,mass density,"313.15 K, w1 = 0.2",1008.1 ± 1.1 kg/m3
